Source: patent US12139508B2, “Steroid derivative regulators, method for preparing the same, and uses thereof” (JIANGSU HANSOH PHARMACEUTICAL GROUP CO., LTD., priority 2018, dated 2024)

How the values were obtained:
GABA-A receptor = assay: 35S-TBPS binding assay (GABAA receptor binding ability test); set-up: species or system Sprague-Dawley rat; conditions: rat cerebral cortex cell membrane, 5 μM GABA, 2 nM 35S-TBPS; read-out: 35S-TBPS bindng test: IC50 on inhibiting the TBPS binding activity
Procedure, shortened: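 Rat (male Sprague-Dawley) cortical membranes in PBS were preincubated 5 min at 25° C with compound (from 1 μM, 3-fold, 8 points, 1% DMSO), then 5 μM GABA 5 min, then 2 nM ^35S-TBPS for 20 h at 4° C. Filter-bound counts gave % inhibition against DMSO and 10 μM P026-2 controls; IC50 by 4-parameter fit.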

[1] = test system: PTZ-induced epilepsy model in CD-1 mice; assay: In vivo pharmacodynamic test in the PTZ-induced epilepsy model in mice; conditions: dose 3 mpk p.o., PTZ 120 mg/kg s.c., 30 min observation
Procedure: The PTZ-induced epilepsy model in CD-1 mice was established, and the antiepileptic effect of the compounds of Example 3, Example 60, Example 61 and Example 74 was evaluated using this model.
50 male CD-1 mice were purchased from Beijing Vital River Laboratory Animal Technology Co. Ltd. The test animals were adapted at the animal room in the third building of Shanghai ChemPartner Co., Ltd for 7 days before the test. The average body weight of the animals on the test day was 32.2±0.2 grams. Feeding environment: 5 animals/cage, room temperature 23±2° C., 12/12 hours of light and dark cycle, free acess to food and water.
4.2.1 Test Equipments • 1 ml sterile disposable syringe with needle (purchased from Zhejiang Kangdelai Medical Devices Co., Ltd.) • Pipette: Eppendorf Research Plus (100-1000 L) • Vortex mixer: Kylin-Bell Vortex 5 • Ultrasonic instrument: JL-360 ultrasonic cleaner • Balance: METTLER TOLEDO™ XS204 precision balance (note: METTLER TOLEDO™ is a kind of balance used in labs and industry) • Balance: METTLER TOLEDO™ XS6002S electronic balance (note: METTLER TOLEDO™ is a kind of balance used in labs and industry) • Plexiglass box: 25 cm length*15 cm width*15 cm height with one opaque side wall, custom made by Suzhou Fengshi Laboratory Animal Equipment Co., Ltd • 3-channel timer: Oregon/Model NO.WB-388. 4.2.2 Test Animal Grouping • 1) Vehicle/PTZ: 0.5% CMC-Na+1% Tween-80 (10 ml/kg, p.o.), administered 0.5 hr before the PTZ administration; PTZ ([…], s.c.), administered before the test; • 2) 3 mg/kg of the compounds of Examples/PTZ: the compounds of Example 3, Example 60, Example 61 and Example 74 (3 mg/kg, 10 ml/kg, p.o.), administered 0.5 hr before the PTZ administration; PTZ ([…], s.c.), administered before the test. 4.3 Experimental Procedures 4.3.1 Solvent Formulation 1) 0.5% CMC-Na+1% Tween-80 (Administration Volume: 10 mL/Kg):
4.4 Adaptation to the Environment
The mice were randomly grouped, marked and weighed; 10 mice per group. The test compound was administered orally at an administration volume of 10 mL/kg 30-60 minutes before the PTZ administration.
PTZ (120 mg/kg) was administrated subcutaneously before the test observation, and this time point was recorded as the observation start point; after the administration of PTZ, the animal was immediately placed in the observation box and observed for 30 minutes, and the followings were recorded: a) the incubation period of the first clonic seizure, b) the incubation period of the first generalized tonic seizure, c) the number of clonic seizures, d) the number of generalized tonic seizures, e) the time when the animal died.
All measurement data were expressed as Mean±SEM, and analysed with Prism 6.0 statistical software.

In the case of C[C@@]1(O)CC[C@H]2[C@H](CC[C@@H]3[C@@H]2CC[C@@]2(C)[C@H]3[C@@H]3C[C@@H]3[C@@H]2C(=O)Cn2cc(C#N)cn2)C1 [Example 2, 1-(2-((2R,4aS,4bR,6aS,7S,7aS,8aR,8bR,8cR,10aR)-2-hydroxy-2,6a-dimethyloctadecahydrocyclopropa[4,5]cyclopenta[1,2-a]phenanthren-7-yl)-2-oxoethyl)-1H-pyrazole-4-carbonitrile], the IC50 (GABA-A receptor) is reported as 24.3 nM.

In the case of C[C@@]1(O)CC[C@H]2[C@H](CC[C@@H]3[C@@H]2CC[C@@]2(C)[C@H]3[C@@H]3C[C@@H]3[C@@H]2C(=O)Cn2ccc(C#N)n2)C1 [Example 3, 1-(2-((2R,4aS,4bR,6aS,7S,7aS,8aR,8bR,8cR,10aR)-2-hydroxy-2,6a-dimethyloctadecahydrocyclopropa[4,5]cyclopenta[1,2-a]phenanthren-7-yl)-2-oxoethyl)-1H-pyrazole-3-carbonitrile], the IC50 (GABA-A receptor) is reported as 14.9 nM, the “Incubation period of the clonic seizure, Mean ± SEM” value [1] is reported as 902.9 ± 200.8 s and the “Incubation period of the generalized tonic seizure, Mean” value [1] is reported as 1736.0 ± 63.2 s. For the same molecule, the Mortality rate [1] was 10%, the “Number of clonic seizures, Mean” value [1] was 1.3 ± 0.3 and the “Number of generalized tonic seizures, Mean” value [1] was 0.1 ± 0.1. For the same molecule, the “Time when the animal died, Mean” value [1] was 1739.8 ± 60.2 s.

For C[C@@]1(O)CC[C@H]2[C@H](CC[C@@H]3[C@@H]2CC[C@@]2(C)[C@H]3[C@@H]3C[C@@H]3[C@@H]2C(=O)Cn2cc(C(F)(F)F)cn2)C1 [Example 5, 1-((2R,4aS,4bR,6aS,7S,7aS,8aR,8bR,8cR,10aR)-2-Hydroxy-2,6a-dimethyloctadecahydrocyclopropa[4,5]cyclopenta[1,2-a]phenanthren-7-yl)-2-(4-(trifluoromethyl)-1H-pyrazol-1-yl)ethan-1-one], the IC50 (GABA-A receptor) was 13.5 nM.

With C[C@@H]1C[C@H](C(=O)Cn2cc(C#N)cn2)[C@@]2(C)CC[C@H]3[C@@H](CC[C@@H]4C[C@](C)(O)CC[C@@H]43)[C@H]12 [Example 13, 1-(2-((3R,5R,8R,9R,10S,13S,14S,15R)-3-Hydroxy-3,13,15-trimethylhexadecahydro-1H-cyclopenta[a]phenanthren-17-yl)-2-oxoethyl)-1H-pyrazole-4-carbonitrile] the IC50 (GABA-A receptor) was 4.6 nM.

In the case of C[C@@H]1C[C@H](C(=O)Cn2ccc(C#N)n2)[C@@]2(C)CC[C@H]3[C@@H](CC[C@@H]4C[C@](C)(O)CC[C@@H]43)[C@H]12 [Example 60, 1-(2-((3R,5R,8R,9R,10S,13S,14S,15R,17S)-3-Hydroxy-3,13,15-trimethylhexadecahydro-1H-cyclopenta[a]phenanthren-17-yl)-2-oxoethyl)-1H-pyrazole-3-carbonitrile], the IC50 (GABA-A receptor) is reported as 8.2 nM, the “Incubation period of the clonic seizure, Mean ± SEM” value [1] is reported as 1308.1 ± 170.1 s and the “Incubation period of the generalized tonic seizure, Mean” value [1] is reported as 1800.0 ± 0.0 s. For the same molecule, the Mortality rate [1] was 0%, the “Number of clonic seizures, Mean” value [1] was 0.5 ± 0.2 and the “Number of generalized tonic seizures, Mean” value [1] was 0.0 ± 0.0. For the same molecule, the “Time when the animal died, Mean” value [1] was 1800.0 ± 0.0 s.

Molecule C[C@@]1(O)CC[C@H]2[C@H](CC[C@@H]3[C@@H]2CC[C@]2(C)C(C(=O)Cn4cc(C#N)cn4)C[C@@H](C4CC4)[C@@H]32)C1 (stereo partly drawn) [Example 71, 1-(2-((3R,5R,8R,9R,10S,13S,14S,15S)-15-Cyclopropyl-3-hydroxy-3,13-dimethylhexadecahydro-1H-cyclopenta[a]phenanthren-17-yl)-2-oxoethyl)-1H-pyrazole-4-carbonitrile] has an IC50 (GABA-A receptor) of 7.5 nM.

With CC[C@@H]1C[C@H](C(=O)Cn2ccc(C#N)n2)[C@@]2(C)CC[C@H]3[C@@H](CC[C@@H]4C[C@](C)(O)CC[C@@H]43)[C@H]12 [Example 137, 1-(2-((3R,5R,8R,9R,10S,13S,14S,15R,17S)-15-Ethyl-3-hydroxy-3,13-dimethylhexadecahydro-1H-cyclopenta[a]phenanthren-17-yl)-2-oxoethyl)-1H-pyrazole-3-carbonitrile] the IC50 (GABA-A receptor) was 16.2 nM.

Work on C[C@@]1(O)CC[C@H]2[C@H](CC[C@@H]3[C@@H]2CC[C@@]2(C)[C@H]3[C@H](C3CC3)C[C@@H]2C(=O)Cn2ccnn2)C1 [Example 145, 1-((3R,5R,8R,9R,10S,13S,14S,15S,17S)-15-Cyclopropyl-3-hydroxy-3,13-dimethylhexadecahydro-1H-cyclopenta[a]phenanthren-17-yl)-2-(1H-1,2,3-triazol-1-yl)ethan-1-one] yielded an IC50 (GABA-A receptor) of 16.9 nM.

Work on C[C@@]1(O)CC[C@H]2[C@H](CC[C@@H]3[C@@H]2CC[C@@]2(C)[C@H]3[C@H](C3CC3)C[C@@H]2C(=O)Cn2ncnn2)C1 [Example 146, 1-((3R,5R,8R,9R,10S,13S,14S,15S,17S)-15-Cyclopropyl-3-hydroxy-3,13-dimethylhexadecahydro-1H-cyclopenta[a]phenanthren-17-yl)-2-(2H-tetrazol-2-yl)ethan-1-one] yielded an IC50 (GABA-A receptor) of 21.4 nM.
